In the oligonucleotide strings, read from the 5' end, every base follows the letter of its sugar. An asterisk marks phosphorothioate; unmarked linkages are phosphodiester. Other units and linkages are bracketed, terminal groups are in braces. A string of capitals states the bases alone. e = 2'-O-(2-methoxyethyl) (MOE); [5mC] = 5-methylcytosine; d = 2'-deoxy (DNA)
What was measured:
Type in all cases: cell-based
human Factor 7 mRNA [1] = assay: Dose-dependent antisense inhibition of human Factor 7 in HepB3 cells, transfection with lipofectin; conditions: lipofectin, HepB3 cells, 16 hours
Outline: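 HepB3 cells (4,000/well) lipofectin-transfected with antisense oligonucleotide at 3.125 or 6.25 up to 100 nM for ~16 h. Factor 7 mRNA measured by real-time RT-PCR with primer probe set RTS 2927, adjusted to RIBOGREEN total RNA; expressed as percent inhibition versus untreated control cells.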

human Factor 7 mRNA [2] = assay: Dose-dependent antisense inhibition of human Factor 7 in HepB3 cells, transfection with electroporation
Protocol: (§1) The gapmers were also transfected via electroporation and their dose-dependent inhibition of human Factor 7 mRNA was measured. Cells were plated at a density of 20,000 cells per well and transfected via electroporation with 3.125 μM, 6.25 μM, 12.5 μM, 25 μM, 50 μM, and 100 μM concentrations of antisense oligonucleotide, as specified in Table 15. After a treatment period of approximately 16 hours, RNA was isolated from the cells and Factor 7 mRNA levels were measured by quantitative real-time PCR. Human Factor 7 primer probe set RTS 2927 was used to measure mRNA levels. Factor 7 mRNA levels were adjusted according to total RNA content, as measured by RIBOGREEN®. Results are presented as percent inhibition of Factor 7, relative to untreated control cells.
as §1, with “Cells were” for “The gapmers were also transfected via electroporation and their dose-dependent inhibition of human Factor 7 mRNA was measured. Cells were”, “in Table 16. After a” for “in Table 15. After a”, “cells and human Factor 7” for “cells and Factor 7”

human Factor 7 mRNA [3] = assay: Antisense inhibition of human Factor 7 mRNA in HepB3 cells, lipofectin, 50 nM, real-time RT-PCR; conditions: HepB3 cells
Outline: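 After transfection of wells containing 4,000 cells, treatment ran for approximately 24 h. RIBOGREEN®-measured total RNA served for normalisation, and inhibition was calculated as a percentage of untreated control.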

[4] = 3.125 μM, 16 hours (Example 7, Table 15)
[5] = 6.25 μM, 16 hours (Example 7, Table 15)
[6] = 12.5 μM, 16 hours (Example 7, Table 15)
[7] = 25 μM, 16 hours (Example 7, Table 15)
[8] = 50 μM, 16 hours (Example 7, Table 15)
[9] = 100 μM, 16 hours (Example 7, Table 15)
[10] = 3.125 μM, 16 hours (Example 8, Table 16)
[11] = 6.25 μM, 16 hours (Example 8, Table 16)
[12] = 12.5 μM, 16 hours (Example 8, Table 16)
[13] = 25 μM, 16 hours (Example 8, Table 16)
[14] = 50 μM, 16 hours (Example 8, Table 16)
[15] = 100 μM, 16 hours (Example 8, Table 16)
[16] = gapmers (5-10-5, 3-14-3, 2-13-5 MOE) targeted to nucleobases 4868 to 4899 of SEQ ID NO: 1
[17] = gapmers targeted to nucleobases 15188 to 15211 of SEQ ID NO: 1 (Table 13)

| Substance | percent inhibition of Factor 7 mRNA, relative to untreated control cells (human Factor 7 mRNA [1]; 3.125 nM) [%] | percent inhibition of Factor 7 mRNA, relative to untreated control cells (human Factor 7 mRNA [1]; 12.5 nM) [%] | percent inhibition of Factor 7 mRNA, relative to untreated control cells (human Factor 7 mRNA [1]; 25 nM) [%] | percent inhibition of Factor 7 mRNA, relative to untreated control cells (human Factor 7 mRNA [1]; 50 nM) [%] | percent inhibition of Factor 7 mRNA, relative to untreated control cells (human Factor 7 mRNA [1]; 100 nM) [%] | percent inhibition of Factor 7 mRNA, relative to untreated control cells (human Factor 7 mRNA [1]) [%] | percent inhibition of Factor 7 mRNA, relative to untreated control cells (human Factor 7 mRNA [2]; [4]) [%] | percent inhibition of Factor 7 mRNA, relative to untreated control cells (human Factor 7 mRNA [2]; [5]) [%] | percent inhibition of Factor 7 mRNA, relative to untreated control cells (human Factor 7 mRNA [2]; [6]) [%] | percent inhibition of Factor 7 mRNA, relative to untreated control cells (human Factor 7 mRNA [2]; [7]) [%] | percent inhibition of Factor 7 mRNA, relative to untreated control cells (human Factor 7 mRNA [2]; [8]) [%] | percent inhibition of Factor 7 mRNA, relative to untreated control cells (human Factor 7 mRNA [2]; [9]) [%] | percent inhibition of Factor 7 mRNA, relative to untreated control cells (human Factor 7 mRNA [2]; [10]) [%] | percent inhibition of Factor 7 mRNA, relative to untreated control cells (human Factor 7 mRNA [2]; [11]) [%] | percent inhibition of Factor 7 mRNA, relative to untreated control cells (human Factor 7 mRNA [2]; [12]) [%] | percent inhibition of Factor 7 mRNA, relative to untreated control cells (human Factor 7 mRNA [2]; [13]) [%] | percent inhibition of Factor 7 mRNA, relative to untreated control cells (human Factor 7 mRNA [2]; [14]) [%] | percent inhibition of Factor 7 mRNA, relative to untreated control cells (human Factor 7 mRNA [2]; [15]) [%] | % Inhibition of human Factor 7 mRNA levels (human Factor 7 mRNA [3]; [16]) [%] | % Inhibition of human Factor 7 mRNA levels (human Factor 7 mRNA [3]; [17]) [%] | further results |
| --- | --- | --- | --- | --- | --- | --- | --- | --- | --- | --- | --- | --- | --- | --- | --- | --- | --- | --- | --- | --- | --- |
| 422177 (antisense e[5mC]*e[5mC]*e[5mC]*dG*d[5mC]*d[5mC]*dG*dG*d[5mC]*dT*d[5mC]*dT*dG*d[5mC]*dT*d[5mC]*dA*eT*e[5mC]*e[5mC]) [compound 422177] | 12 | 44 | 64 | 81 | 88 | 24 | 3 | 10 | 29 | 21 | 31 | 63 | – | – | – | – | – | – | – | – | % Inhibition of human Factor 7 mRNA levels (human Factor 7 mRNA [3]; gapmers targeted to nucleobases 13760 to 13789 of SEQ ID NO: 1 (Table 10)): 74% |
| 422296 (antisense e[5mC]*e[5mC]*dG*dA*dG*dT*dT*d[5mC]*dT*dG*d[5mC]*dA*dG*dG*dA*eG*e[5mC]*eG*eG*e[5mC]) [compound 422296] | 21 | 39 | 67 | 78 | 82 | 27 | 62 | 40 | 56 | 56 | 82 | 84 | 47 | 44 | 70 | 78 | 80 | 82 | 74 | – | – |
| 422215 (antisense eG*eT*eT*d[5mC]*dT*dG*d[5mC]*dA*dG*dG*dA*dG*d[5mC]*dG*dG*d[5mC]*d[5mC]*eT*eA*eA) [compound 422215] | 13 | 54 | 65 | 84 | 82 | 30 | 11 | 9 | 31 | 50 | 68 | 84 | – | – | – | – | – | – | 73 | – | – |
| 422228 (antisense eT*eG*d[5mC]*dA*dT*dG*dG*dT*dG*dA*dT*dG*d[5mC]*dT*dT*e[5mC]*eT*eG*eA*eA) [compound 422228] | 17 | 43 | 60 | 78 | 90 | 25 | 18 | 33 | 40 | 47 | 71 | 83 | – | – | – | – | – | – | – | 73 | – |
| 422087 (antisense e[5mC]*eA*eT*eG*e[5mC]*dA*dT*dG*dG*dT*dG*dA*dT*dG*d[5mC]*eT*eT*e[5mC]*eT*eG) [compound 422087] | 14 | 51 | 73 | 83 | 90 | 24 | 22 | 26 | 48 | 57 | 72 | 80 | 19 | 38 | 66 | 75 | 80 | 87 | – | 83 | – |
| 422086 (antisense eT*eG*e[5mC]*eA*eT*dG*dG*dT*dG*dA*dT*dG*d[5mC]*dT*dT*e[5mC]*eT*eG*eA*eA) [compound 422086] | 8 | 46 | 65 | 83 | 90 | 26 | 20 | 34 | 44 | 63 | 75 | 84 | 25 | 48 | 74 | 82 | 86 | 90 | – | 81 | – |
